This passage reports Activity results from ChEMBL document CHEMBL1153605, “Synthesis and in vivo antidiabetic activity of novel dispiropyrrolidines through [3+2] cycloaddition reactions with thiazolidinedione and rhodanine derivatives” (2009).

Type in all cases: functional
Assay [1] relates to Rattus norvegicus. As to the kind of experiment: Reduction of blood urea nitrogen level in alloxan-induced diabetic Wistar rat model at 36 mg/kg, po administered once daily for 15 days measured on day 18.
Assay [2] deals with Rattus norvegicus. As to the kind of experiment: Reduction of serum GPT level in alloxan-induced diabetic Wistar rat model at 36 mg/kg, po administered once daily for 15 days measured on day 18.
The subject of assay [3] is Rattus norvegicus. Put plainly: Reduction of liver ALP level in alloxan-induced diabetic Wistar rat model at 36 mg/kg, po administered once daily for 15 days measured on day 18.
The subject of assay [4] is Rattus norvegicus. Put plainly: Reduction of liver GPT level in alloxan-induced diabetic Wistar rat model assessed per mg of protein at 36 mg/kg, po administered once daily for 15 days measured on day 18.
Assay [5] deals with Rattus norvegicus. Put plainly: Antidiabetic activity in alloxan-induced diabetic Wistar rat model assessed as reduction in blood glucose level at 36 mg/kg, po administered once daily for 15 days measured after 3 hrs postdose.
The test system of assay [6] is Rattus norvegicus. Put plainly: Reduction of serum creatinine level in alloxan-induced diabetic Wistar rat model at 36 mg/kg, po administered once daily for 15 days measured on day 18.
Assay [7] concerns Rattus norvegicus. As to the kind of experiment: Antidiabetic activity in alloxan-induced diabetic Wistar rat model assessed as reduction in blood glucose level at 36 mg/kg, po administered once daily for 15 days measured after 6 hrs postdose.
In assay [8] the test system is Rattus norvegicus. Put plainly: Antidiabetic activity in alloxan-induced diabetic Wistar rat model assessed as reduction in blood glucose level at 36 mg/kg, po administered once daily for 15 days measured after 1 hr postdose.

Turning to `CN1C[C@H](c2ccc(F)c(F)c2)[C@]2(SC(=O)NC2=S)[C@]12C(=O)Nc1ccccc12`, the Activity in the assay on Rattus norvegicus [1] was 38.5 mg/dL; in the assay with Rattus norvegicus [2], 137.5 U/ml; with Rattus norvegicus [3], 37 KA/dl; with Rattus norvegicus [4], 626 U/mg protein; in the assay with Rattus norvegicus [5], 112.8 mg/dL; with Rattus norvegicus [6] it was 1.5 mg/dL. The Activity stood at 106.5 mg/dL in the assay on Rattus norvegicus [7] and 137.5 mg/dL in the assay on Rattus norvegicus [8].

Consider `COc1ccc([C@H]2CN(C)[C@@]3(C(=O)Nc4ccccc43)[C@@]23SC(=O)NC3=O)cc1OC`, for which the Activity is 41.8 mg/dL with Rattus norvegicus [1]; 140.5 U/ml in the assay on Rattus norvegicus [2]; 48.5 KA/dl in the assay on Rattus norvegicus [3]; 698 U/mg protein in the assay on Rattus norvegicus [4]; 123.8 mg/dL in the assay on Rattus norvegicus [5]; 1.8 mg/dL with Rattus norvegicus [6]. The Activity with Rattus norvegicus [7] was 115.8 mg/dL; with Rattus norvegicus [8], 133.5 mg/dL.

For the compound `COc1ccc([C@H]2CN(C)[C@@]3(C(=O)Nc4ccccc43)[C@@]23SC(=O)NC3=S)cc1OC`, the Activity came out at 35.5 mg/dL in the assay with Rattus norvegicus [1]; 121 U/ml in the assay on Rattus norvegicus [2]; 42.3 KA/dl in the assay on Rattus norvegicus [3]; 576 U/mg protein in the assay on Rattus norvegicus [4]; 106.5 mg/dL with Rattus norvegicus [5]; 2.2 mg/dL in the assay on Rattus norvegicus [6]. The Activity is 95.8 mg/dL in the assay with Rattus norvegicus [7] and 140.5 mg/dL in the assay on Rattus norvegicus [8].

With `CN1C[C@H](c2ccc(F)c(F)c2)[C@]2(SC(=O)NC2=O)[C@]12C(=O)Nc1ccccc12`, the Activity was found to be 35 mg/dL with Rattus norvegicus [1]; 132 U/ml in the assay on Rattus norvegicus [2]; 41.3 KA/dl in the assay on Rattus norvegicus [3]; 582 U/mg protein in the assay with Rattus norvegicus [4]; 123.5 mg/dL in the assay on Rattus norvegicus [5]; 2.1 mg/dL in the assay with Rattus norvegicus [6]. The Activity came to 115.3 mg/dL in the assay on Rattus norvegicus [7] and 134.5 mg/dL in the assay with Rattus norvegicus [8].

Consider `Cc1ccc([C@H]2CN(C)[C@@]3(C(=O)Nc4ccccc43)[C@@]23SC(=O)NC3=O)cc1`, for which the Activity in the assay on Rattus norvegicus [1] worked out at 37.5 mg/dL; in the assay on Rattus norvegicus [2], 129.8 U/ml; in the assay with Rattus norvegicus [3], 38.3 KA/dl; in the assay on Rattus norvegicus [4], 558 U/mg protein; with Rattus norvegicus [5], 136.5 mg/dL; with Rattus norvegicus [6], 1.8 mg/dL. The Activity in the assay with Rattus norvegicus [7] amounted to 125.5 mg/dL; in the assay on Rattus norvegicus [8] it was 140.5 mg/dL.

With `CN1C[C@H](c2ccc(O)c(O)c2)[C@]2(SC(=O)NC2=S)[C@]12C(=O)Nc1ccccc12`, the Activity with Rattus norvegicus [1] was 39 mg/dL; in the assay on Rattus norvegicus [2], 142.8 U/ml; in the assay on Rattus norvegicus [3], 43.8 KA/dl; with Rattus norvegicus [4] it was 646 U/mg protein; in the assay on Rattus norvegicus [5], 158.5 mg/dL; with Rattus norvegicus [6], 2 mg/dL. Further, the Activity turned out to be 120.5 mg/dL in the assay on Rattus norvegicus [7] and 175.5 mg/dL with Rattus norvegicus [8].
